How the values were obtained:
Assay in all cases: NCI-60 one-dose assay
Assay type in all cases: cell-based
K-562 = settings: Homo sapiens, K562, K-562 (Leukemia), read-out: Cell Inhibition Percent
Protocol: (§1) The final compounds were submitted to the National Cancer Institute, Bethesda, USA, for screening in vitro for anti-cancer. […] compounds, 4a–j, 5, and 6, were selected according to the Development Therapeutic Program (DTP) protocol. The selected compounds were evaluated for their in vitro cytotoxic activity against a panel of sixty cancer cell lines (NCI-60 cell line panel) derived from six cell lines panel of leukemia, nine cell lines of lung cancer, six cell lines of CNS cancer, seven cell lines of colon cancer, eight cell lines of melanoma, six cell lines of ovarian cancer, eight cell lines of renal cancer, two cell lines of prostate cancer, and eight cell lines of breast cancer, representing the full nine human systems as leukemia, melanoma, and cancers of the lung, colon, brain, breast, ovary, kidney, and prostate.
(§2) The selected compounds 4a–j, 5, and 6 were tested at a single concentration of 10 µM. The screening results for the selected compounds are illustrated in Table 1.
(§3) The NCI anti-cancer screening methodology has been described in detail elsewhere (http://www.dtp.nci.nih.gov, accessed on 20 February 2021). Following the Drug Evaluation Branch protocol, National Cancer Institute, Bethesda, USA, a primary anti-cancer assay was performed on approximately 60 human tumor cell line panels derived from nine neoplastic diseases.

MOLT-4 = settings: Homo sapiens, MOLT-4 (Leukemia), read-out: Cell Inhibition Percent
Protocol: as §1, §2, §3

SK-MEL-5 = settings: Homo sapiens, SK-MEL-5 (Melanoma), read-out: Cell Inhibition Percent
Protocol: as §1, §2, §3

SW-620 = settings: Homo sapiens, SW-620 (Colon Cancer), read-out: Cell Inhibition Percent
Protocol: as §1, §2, §3

SF-268 = settings: Homo sapiens, SF-268 (CNS cancer), read-out: Cell Inhibition Percent
Protocol: as §1, §2, §3

UACC-62 = settings: Homo sapiens, UACC-62 (Melanoma), read-out: Cell Inhibition Percent
Protocol: as §1, §2, §3

MCF7 = settings: Homo sapiens, MCF7 (Breast Cancer), read-out: Cell Inhibition Percent
Protocol: as §1, §2, §3

NCI-H522 = settings: Homo sapiens, NCI-H522 (Non-Small Cell Lung Cancer), read-out: Cell Inhibition Percent
Protocol: as §1, §2, §3

MDA-MB 231 = settings: Homo sapiens, MDA-MB 231 (Breast Cancer), read-out: Cell Inhibition Percent
Protocol: as §1, §2, §3

HL-60(TB) = settings: Homo sapiens, HL-60(TB) (Leukemia), read-out: Cell Inhibition Percent
Protocol: as §1, §2, §3

CAKI-1 = settings: Homo sapiens, CAKI-1 (Renal Cancer), read-out: Cell Inhibition Percent
Protocol: as §1, §2, §3

KM12 = settings: Homo sapiens, KM12 (Colon Cancer), read-out: Cell Inhibition Percent
Protocol: as §1, §2, §3

PC-3 = settings: Homo sapiens, PC-3 (Prostate Cancer), read-out: Cell Inhibition Percent
Protocol: as §1, §2, §3

SN12C = settings: Homo sapiens, SN12C (Renal Cancer), read-out: Cell Inhibition Percent
Protocol: as §1, §2, §3

BT-549 = settings: Homo sapiens, BT-549 (Breast Cancer), read-out: Cell Inhibition Percent
Protocol: as §1, §2, §3

U251 = settings: Homo sapiens, U-251, U251 (CNS cancer), read-out: Cell Inhibition Percent
Protocol: as §1, §2, §3

HOP-92 = settings: Homo sapiens, HOP-92 (Non-Small Cell Lung Cancer), read-out: Cell Inhibition Percent
Protocol: as §1, §2, §3

NCI-H23 = settings: Homo sapiens, NCI-H23 (Non-Small Cell Lung Cancer), read-out: Cell Inhibition Percent
Protocol: as §1, §2, §3

NCI-H322M = settings: Homo sapiens, NCI-H322M (Non-Small Cell Lung Cancer), read-out: Cell Inhibition Percent
Protocol: as §1, §2, §3

DU-145 = settings: Homo sapiens, DU-145 (Prostate Cancer), read-out: Cell Inhibition Percent
Protocol: as §1, §2, §3

SK-MEL-28 = settings: Homo sapiens, SK-MEL-28 (Melanoma), read-out: Cell Inhibition Percent
Protocol: as §1, §2, §3

COLO 205 = settings: Homo sapiens, COLO 205 (Colon Cancer), read-out: Cell Inhibition Percent
Protocol: as §1, §2, §3

SF-295 = settings: Homo sapiens, SF-295 (CNS cancer), read-out: Cell Inhibition Percent
Protocol: as §1, §2, §3

A549/ATCC = settings: Homo sapiens, A549/ATCC (Non-Small Cell Lung Cancer), read-out: Cell Inhibition Percent
Protocol: as §1, §2, §3

RXF 393 = settings: Homo sapiens, RXF 393 (Renal Cancer), read-out: Cell Inhibition Percent
Protocol: as §1, §2, §3

SF-539 = settings: Homo sapiens, SF-539 (CNS cancer), read-out: Cell Inhibition Percent
Protocol: as §1, §2, §3

HCT-15 = settings: Homo sapiens, HCT-15 (Colon Cancer), read-out: Cell Inhibition Percent
Protocol: as §1, §2, §3

OVCAR-5 = settings: Homo sapiens, OVCAR-5 (ovarian cancer), read-out: Cell Inhibition Percent
Protocol: as §1, §2, §3

786-0 = settings: Homo sapiens, 786-0 (Renal Cancer), read-out: Cell Inhibition Percent
Protocol: as §1, §2, §3

M14 = settings: Homo sapiens, M14 (Melanoma), read-out: Cell Inhibition Percent
Protocol: as §1, §2, §3

NCI-H460 = settings: Homo sapiens, NCI-H460 (Non-Small Cell Lung Cancer), read-out: Cell Inhibition Percent
Protocol: as §1, §2, §3

SMILES: CCn1c(-c2ccc3[nH]c(-c4ccc(Cl)cc4)nc3c2)n[nH]c1=S [Compound 6, 4-ethyl-5-(2-(4-chlorophenyl)-1H-benzimidazol-5-yl)-2,4-dihydro-3H-1,2,4triazole-3-thione]
- inhibition at 10 µM (K-562): 1.43%
- inhibition at 10 µM (MOLT-4): 2.85%
- inhibition at 10 µM (SK-MEL-5): 2.04%
- inhibition at 10 µM (SW-620): 0%
- inhibition at 10 µM (SF-268): 1.04%
- inhibition at 10 µM (UACC-62): 1.04%
- inhibition at 10 µM (MCF7): 14.6%
- inhibition at 10 µM (NCI-H522): 1.85%
- inhibition at 10 µM (MDA-MB 231): 2.36%
- inhibition at 10 µM (HL-60(TB)): 0%
- inhibition at 10 µM (CAKI-1): 7.78%
- inhibition at 10 µM (KM12): 0%
- inhibition at 10 µM (PC-3): 7.76%
- inhibition at 10 µM (SN12C): 0%
- inhibition at 10 µM (BT-549): 7.91%
- inhibition at 10 µM (U251): 0%
- inhibition at 10 µM (HOP-92): 0.32%
- inhibition at 10 µM (NCI-H23): 4.53%
- inhibition at 10 µM (NCI-H322M): 0%
- inhibition at 10 µM (DU-145): 0%
- inhibition at 10 µM (SK-MEL-28): 0%
- inhibition at 10 µM (COLO 205): 0%
- inhibition at 10 µM (SF-295): 0.56%
- inhibition at 10 µM (A549/ATCC): 0%
- inhibition at 10 µM (RXF 393): 13.9%
- inhibition at 10 µM (SF-539): 3.69%
- inhibition at 10 µM (HCT-15): 1.62%
- inhibition at 10 µM (OVCAR-5): 0%
- inhibition at 10 µM (786-0): 0%
- inhibition at 10 µM (M14): 0%
- inhibition at 10 µM (NCI-H460): 0%

Source: paper PMC10819888, “Benzimidazole-Based Derivatives as Apoptotic Antiproliferative Agents: Design, Synthesis, Docking, and Mechanistic Studies” (Molecules, 2024)
